Tested on: TNF-α protein production in BV-2 cells
Test: LPS-induced TNF-α protein production in BV-2 cells, ELISA
Assay type: cell-based, murine
Conditions: 100 ng/ml LPS, 18 hours
Method: To measure the TNF-α level in cell culture supernatants, BV-2 cells were seeded at 1×10^5 cells/ml in the volume of 0.5 ml in 24-well culture plates. They were co-treated with or without 100 ng/ml LPS in the absence or presence of indicated concentrations of bioactive compounds of LCX for 18 h. In addition, PBMac cells were seeded at 1×10^6 cells/ml in the volume of 0.5 ml in 24-well plates. After incubation, the supernatants were collected and TNF-α levels were determined by ELISA according to the manufacturer's instructions (R&D Systems).
The role of senkyunolide A (Sen A) and Z-ligustilide (Z-Lig) in suppressing TNF-α production is further evaluated in this Example. Briefly, 5×10^4 cells/ml BV-2 cells are seeded in 24-well plates (0.5 ml in each well). Cells are treated with 0.05% DMSO; 0.05% DMSO and 100 ng/ml LPS; 50 μg/ml Sen A/Z-Lig; or 100 ng/ml LPS and Sen A/Z-Lig at a concentration of 1 μg/ml, 5 μg/ml, 10 μg/ml, 25 μg/ml, and 50 μg/ml for 18 hours, respectively. The culture supernatant is collected and the level of secreted TNF-α is measured by ELISA.

CCCC[C@H]1OC(=O)C2=C1CCC=C2 [senkyunolide A]
reduction in TNF-α production (10 μg/ml): approximately 2 fold
reduction in TNF-α production (25 μg/ml): ~4 fold
reduction in TNF-α production (50 μg/ml): ~10 fold
